Reference: US12643913B2, “Mcl-1 inhibitor formulations” (AMGEN INC., priority 2020, dated 2026)

Experiments:
[1] = Pharmacokinetics after oral gavage to male beagle dogs with different pre-treatments (Amgen study 150528); assay type: in vivo; details: 3 mg/kg PO; for AUCt / Cl/F / Cmax / Tmax / T½: male beagle dogs
Procedure: The pharmacokinetics of AMG 397 were assessed following oral administration to male beagle dogs as either a suspension of the crystalline hydrate form of AMG 397 or an amorphous suspension in 2% HPMC, 0.01% Tween 80. The full protocol is described in Amgen study number 150528. The goal of this study was to determine if the amorphous material would lead to increases in bioavailability and if variability in dosing could be reduced. In addition, oncology patients could be receiving acid-reducing agents as co-medication, so it is important to determine if exposure is reduced with elevated stomach pH and if an amorphous formulation of AMG 397 could overcome the drug-drug interaction (DDI). For the studies below, Form 1 is the crystalline hydrate form of AMG 397 and amorphous is the amorphous form of AMG 397.
Briefly, during each phase five male beagle dogs were assigned to each group of the study. All animals were fasted for at least eight hours prior to dosing and through the first four hours of blood sample collection for each phase. Food was returned within 30 minutes following collection of the last blood sample at the four-hour collection interval. Each animal in Phase 1, received a single oral (PO) gavage dose of the appropriate test article formulation as outlined in the study design Table 6. Oral gavage dosing formulations were continuously stirred throughout dosing. The gavage tube was rinsed with approximately 10 mL of tap water following dosing (prior to removal of the gavage tube). Following each study phase a 7-day washout period was allowed prior to the dosing of the next phase. The same five dogs were assigned to either group 1 or group 2 formulations for the duration of the study.
Test Article Administration: A total of 10 male beagle dogs were initially assigned to study. All animals were fasted for at least eight hours prior to dosing and through the first four hours of blood sample collection for each phase, where applicable (food will be returned within 30 minutes following collection of the last blood sample at the four hour collection interval, where applicable). Total fasting time […] 24 hours.
(§1) Each animal in Phase 1, Groups 1 and 2 received a single oral (PO) gavage dose of the appropriate test article formulation as outlined in the following study design table. Oral gavage dosing formulations was continuously stirred throughout dosing. The gavage tube was rinsed with approximately 10 mL of tap water following dosing (prior to removal of the gavage tube). No pre-treatment will be required for Phase 1.
as §1, with “After a 7-day washout period, each” for “Each”, “2,” for “1,”, “land” for “1 and”, “were” for “was”, “Two hours prior to dosing, each animal received two 20 mg (40 mg total) oral tablets of famotidine followed by a 10 mL dose of deionized water.” for “No pre-treatment will be required for Phase 1.”
After another 7-day washout period, each animal in Phase 3, Groups land 2 received a single oral (PO) gavage dose of the appropriate test article formulation as outlined in the following study design table. Oral gavage dosing formulations were continuously stirred throughout dosing. The gavage tube was rinsed with approximately 10 mL of tap water following dosing (prior to removal of the gavage tube). Thirty minutes prior to dosing, each animal received an intramuscular dose of pentagastrin in phosphate buffered saline at a dose level of 0.006 mg/kg and a dose volume of 0.05 mL/kg.
After a final 7-day washout period, each animal in Phase 4, Groups 1 and 2 received a single oral (PO) gavage dose of the appropriate test article formulation as outlined in the following study design table. Oral gavage dosing formulations were continuously stirred throughout dosing. […]

[2] = Chemical stability of amorphous solid dispersions (HPLC: LCAP, total impurities) through processing and on storage; assay type: physicochemical; details: all storage conditions
Procedure: The chemical and physical stability of AMG 397 50% drug load ASDs generated by spray drying from THF was monitored over 4 weeks under accelerated conditions. Chemical stability was measured by HPLC and physical stability by XRPD, DSC and TGA. Samples were stored at 40° C./75% RH open, 40° C./75% RH closed, 25° C./60% RH closed, and 5° C. closed. All samples were tested after storage for 4 weeks except for the 40° C./75% RH open condition that was also tested at weeks 1 and 2. The THF ASD samples had significant degradation at TO due to the use of THF as the spray solvent. […] Unlike the amorphous DS, the ASD samples were stable when stored at 5° C. for 4-weeks.
Two further amorphous solid dispersions (ASD) were therefore prepared by spray-drying using DCM as the solvent in place of THF. Soluplus was used to prepare both these dispersions due to its improved stability over HPMC-AS ASDs generated from THF. Two drug loads were investigated, 25% and 50%.
The chemical stability of AMG 397 Soluplus ASDs generated by spray drying using DCM was monitored during each processing step to ensure that no degradation occurred during spray-drying or secondary drying. Samples were also stored for 4 weeks under the following conditions: 5° C. closed, 25° C. closed, 25°,C/60% RH closed, 25° C./60% RH open, 40° C./75% RH open and 40° C./75% RH closed. […]

[3] = Moisture sorption profile (DVS); assay type: physicochemical; details: by 95% RH; listed as amorphous AMG 397
Procedure: Moisture Sorption: Moisture sorption data was collected using a Surface Measurement Systems DVSAdvantage instrument. Equilibrium criteria were set at ±0.001% weight change in 10 minutes with a maximum equilibrium time of 380 minutes.
Moisture Sorption: Moisture sorption data was collected using a Surface Measurement Systems DVSAdvantage instrument. Equilibrium criteria were set at ±0.001% weight change in 10 minutes with a maximum equilibrium time of 360 minutes.

[4] = 2-stage micro-dissolution (faSSGF then faSSIF), amorphous vs crystalline hydrate; assay type: physicochemical
Procedure: A 2-stage micro-dissolution experiment was performed to compare the dissolution of the amorphous AMG 397 drug substance to the crystalline hydrate form of AMG 397, as shown in FIG. 5. […] Upon dilution with fasted simulated intestinal fluid (faSSIF, pH 6.0 after dilution) the concentration of the amorphous material was seen to drop before increasing over the next 10 minutes and reaching a plateau. No precipitation of the amorphous material was observed, and it maintained at 5× higher concentration than the crystalline hydrate form of AMG 397 for the duration of the experiment. […] Unlike the amorphous material no further dissolution occurred once the media was switched to faSSIF.

[5] = Phase 2, famotidine pre-treatment (stomach pH ~6.5)
[6] = Phase 3, pentagastrin pre-treatment (stomach pH ~2.0)
[7] = Phase 4, pentagastrin pre-treatment + P-gp inhibitor GF120918

AUCt ([1]; Phase 1, no pre-treatment): 17.3 µM·h
Cl/F ([1]; Phase 1, no pre-treatment): 6.7 mL/min/kg
Cmax ([1]; Phase 1, no pre-treatment): 790 nM
Tmax ([1]; Phase 1, no pre-treatment): 3.1 h
T½ ([1]; Phase 1, no pre-treatment): 18.4 h
AUCt [1, 5]: 21.1 µM·h
Cl/F [1, 5]: 3.67 mL/min/kg
Cmax [1, 5]: 900 nM
Tmax [1, 5]: 8.1 h
T½ [1, 5]: 19.7 h
AUCt [1, 6]: 18 µM·h
Cl/F [1, 6]: 4.33 mL/min/kg
Cmax [1, 6]: 780 nM
Tmax [1, 6]: 10.4 h
T½ [1, 6]: 18.3 h
AUCt [1, 7]: 26.0 µM·h
Cl/F [1, 7]: 4.33 mL/min/kg
Cmax [1, 7]: 950 nM
Tmax [1, 7]: 12.4 h
T½ [1, 7]: 16.5 h
Effect of stomach pH on exposure ([1]; beagle dogs): not affected by stomach pH
Bioavailability relative to the crystalline hydrate form ([1]; stomach pH elevated, beagle dogs): 3.4 fold
Bioavailability relative to the crystalline hydrate form ([1]; stomach pH low, beagle dogs): 1.6 fold
Change of total impurities at 4-weeks [2]: Increases in total impurities
Moisture sorption weight gain [3]: ~6.4%
Concentration relative to the crystalline hydrate form ([4]; after dilution with faSSIF (pH 6.0), maintained for the duration of the experiment): 5 ×
Concentration relative to the crystalline hydrate form ([4]; simulated gastric fluid (faSSGF), after 20 minutes): ~8 ×
Compound: CO[C@]1(CN2CCN3CCCC[C@@H]3C2)/C=C/C[C@H](C)[C@@H](C)S(=O)(=O)NC(=O)c2ccc3c(c2)N(C[C@@H]2CC[C@H]21)C[C@@]1(CCCc2cc(Cl)ccc21)CO3 [AMG 397 Amorphous]
